{
  "source": "patent US20220372448A1",
  "about": "“CELL LINE AND PRODUCING METHOD THEREOF” (University of Yamanashi, priority 2021, published 2022)",
  "system": "VeroE6/Rep #3 cells",
  "assay": "MTS assay for cell survival rate of VeroE6/Rep #3 cells",
  "details": "72 hours, EIDD-2801 20 μM, library compounds 10 μM",
  "data": [
    {"compound": "CC(C)C(=O)OC[C@H]1O[C@@H](n2ccc(NO)nc2=O)[C@H](O)[C@@H]1O", "note": "[EIDD-2801, molnupiravir]", "values": [
      {"measurement": "cell proliferation / cell survival (MTS assay) compared with DMSO negative control", "value": "a decrease in cell proliferation was not observed"}
    ]}
  ]
}
